# According to US11254720B2, “Methods and systems for designing and/or characterizing soluble lipidated ligand agents” (Tufts Medical Center, priority 2013, dated 2022):
# Read-outs that look alike come from different tables or passages of the source. Non-standard residues stand in square brackets, D forms with d. Residues, ends and D or L forms follow the SMILES beside them. Tic = O=C(O)[C@@H]1Cc2ccccc2CN1
# Assays:
# [1] = tested on: Adult CD1 mice; assay: Chronic constriction injury neuropathic pain model, von Frey and acetone tests; type: in vivo, mouse; details: intrathecal 100 pmol, 1 week after CCI
# Text: Intrathecal injection of 1-stable chem (100 pmol), 1 week after CCI, reduces CCI-induced mechanical hypersensitivity (panels A+C) and cold allodynia (panel E). Intrathecal injection of ResolvinE1 (RvE1)(100 pmol), 1 week after CCI, reduces CCI-induced mechanical hypersensitivity (panels B+D) and cold allodynia (panel F). BL=baseline before surgery.
# Adult CD1 mice (male, 25-35 g) were used for behavioral studies. Mice were group-housed and kept under a 12-hour light/dark cycle. […]
# Nerve injury-induced mechanical allodynia and hypersensitivity were assessed by von Frey hairs as previously described (see Xu et al., Resolvin E1 inhibits neuropathic pain and spinal cord microglial activation following peripheral nerve injury, 2013, J. Neuroimmune Pharmacol, 8: 37-41). […] The 50% paw withdrawal threshold (PWT) was determined using Dixon's up-down method. For paw withdrawal frequency (PWF), the same von Frey hair (0.16 g) was applied 10 times and the number of positive responses to the stimulations counted. A positive response was scored if the mouse sharply withdrew the paw or flinched upon removal of the stimulus. […] In brief, a drop of acetone was placed against the plantar paw of the mouse and the mouse's response monitored for the next 20 seconds. […]
# [2] = biological target: T1, CCK2R (Homo sapiens, UniProt P32239); assay: Antagonist inhibition of agonist-induced CCK2R signaling (luciferase); type: cell-based
# T1 construct: expressed in transfected cells; host or cells: HEK293
# T1 sequence (P32239 1-447): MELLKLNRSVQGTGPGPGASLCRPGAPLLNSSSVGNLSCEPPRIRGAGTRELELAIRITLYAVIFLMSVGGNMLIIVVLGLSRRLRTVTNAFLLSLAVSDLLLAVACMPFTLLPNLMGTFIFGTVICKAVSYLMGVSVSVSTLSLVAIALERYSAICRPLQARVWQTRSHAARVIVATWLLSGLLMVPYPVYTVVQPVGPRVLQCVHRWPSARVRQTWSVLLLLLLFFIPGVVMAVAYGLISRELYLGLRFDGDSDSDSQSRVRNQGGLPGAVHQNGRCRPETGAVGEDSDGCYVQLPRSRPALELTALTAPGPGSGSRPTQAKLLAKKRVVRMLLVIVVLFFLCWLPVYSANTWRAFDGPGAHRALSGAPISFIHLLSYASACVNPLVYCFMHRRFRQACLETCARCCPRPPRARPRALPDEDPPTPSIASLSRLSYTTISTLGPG
# Method: A) YM022 blocks tethered CCK4-Gly mediated CCK2R signaling. HEK293 cells were cotransfected with cDNAs encoding: CCK2R, a 5X-SRE-Luc-pest reporter gene, tCCK4-Gly (as indicated), and a β-galactosidase gene to control for transfection efficiency. Four hours following transfection, cells were with treated with increasing concentrations of YM022 for 20 hours. […] B) YM022 blocks s-CCK-4-Gly-COOH and l-CCK4-Gly-COOH mediated activation of CCK2R. HEK293 cells were transfected as indicated above. Twenty hours after transfection, cells were with treated with increasing concentrations of YM022 together with either 10 μM of l-CCK4-Gly-COOH or s-CCK4-Gly-COOH. […] Abbreviations: tCCK4-Gly, tethered glycine extended CCK4; s-CCK4-Gly-COOH, soluble glycine extended CCK4 with a C-terminal free acid; 1-CCK4-Gly-COOH, lipidated glycine extended CCK4 with a C-terminal free acid; CCK2R, cholecystokinin 2 receptor.
# [3] = biological target: T2, mouse CMKLR1 (Mus musculus, UniProt P97468); assay: SRE-luciferase reporter gene assay in transfected HEK293 cells; details: for Activity of membrane-tethered ligand at mouse CMKLR1: tethered ligand cDNA cotransfected, luciferase 24 hours after transfection
# T2 sequence (P97468 1-371): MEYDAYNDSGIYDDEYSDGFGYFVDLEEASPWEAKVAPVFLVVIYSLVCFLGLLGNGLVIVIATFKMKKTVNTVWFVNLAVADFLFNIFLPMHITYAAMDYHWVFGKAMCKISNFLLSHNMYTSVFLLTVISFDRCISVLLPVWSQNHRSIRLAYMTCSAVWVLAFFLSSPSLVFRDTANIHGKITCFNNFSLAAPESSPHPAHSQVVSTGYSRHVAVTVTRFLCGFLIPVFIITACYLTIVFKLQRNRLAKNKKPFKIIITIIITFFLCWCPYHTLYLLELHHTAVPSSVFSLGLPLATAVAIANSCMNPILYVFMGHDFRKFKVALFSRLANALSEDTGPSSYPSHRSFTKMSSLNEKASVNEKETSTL
# Method: (§1) Receptor-mediated signaling was assessed as previously described. Briefly, HEK293 cells were plated at a density of 6,000 cells/well into 96-well clear-bottom plates and grown to ˜80% confluence. […] Expression of Gq5i66V directs signaling of the Gαi-coupled chemerin receptor to stimulation of a Gαq-dependent SRE5x-Luc-PEST reporter gene. For experiments investigating the agonist function of soluble and lipidated peptides, tethered ligand cDNA was not included in the transfection mixture. Twenty four hours after transfection, cells were stimulated with or without peptide agonist for 4 hours in serum-free medium. […] Following ligand stimulation, the media was aspirated and luciferase activity measured using SteadyLite reagent and quantified using a TopCount NTX. A β-galactosidase assay was then performed following assessment of luminescence. Cleavage of 2-nitrophenyl β-D-galactopyranoside substrate was quantified after incubation of cell lysates at 37° C. for 30 to 60 minutes by measuring the optical density at 420 nm on a SpectraMax microplate reader. Luciferase reporter gene activities were normalized to corresponding β-galactosidase activity controls.
# (§2) HEK293 cells were transiently transfected with cDNAs encoding i) human or mouse CMKLR1, ii) a SRE5x-Luc reporter gene, iii) a Gαq5i66V chimera, and iv) a β-galactosidase control. Twenty-four hours after transfection, cells were stimulated with ligand for 4 hours and luciferase activity determined as described in Experimental Procedures. Luciferase activity was normalized relative to the maximal value observed using saturating concentrations of the corresponding soluble ligand (=100%). […] As a next step, the effect of membrane anchoring on chemerin activity was examined. […] HEK293 cells were transiently transfected with cDNAs encoding i) various tethered ligands, ii) human or mouse CMKLR1, iii) a SRE5x-Luc reporter gene, iv) aGαq5i66V chimera, and v) a β-galactosidase control. Twenty-four hours after transfection, luciferase activity was determined as described in Experimental Procedures.
# (§3) HEK293 cells were transiently transfected with cDNAs encoding i) 8 ng of various tethered ligands, ii) human or mouse CMKLR1, iii) a SRE5x-Luc reporter gene, iv) a Gαq5i66V chimera, and v) a β-galactosidase control. Twenty-four hours after transfection, luciferase activity was determined as described in Experimental Procedures.
# [4] = biological target: T2, mouse CMKLR1; assay: Washout experiments (serial washes after 15 min ligand, luciferase readout); details: three washes after 15 min ligand
# Method: (§4) Agonist activity was compared with and without serial washings shortly after addition of ligand. Briefly, HEK293 cells were plated and transfected as described above with the addition of a poly-L-lysine plate pretreatment step to enhance cell adhesion. Twenty-four hours after transfection, cells were stimulated with increasing concentrations of agonist for 15 minutes at 37° C. Selected wells were washed three times with serum-free media. Plates were then incubated for an additional 4 hours. Receptor mediated signaling was assessed using a luciferase based assay as described above.
# (§5) HEK293 cells were transiently transfected with cDNAs encoding i) human or mouse CMKLR1, ii) a SRE5x-Luc reporter gene, iii) a Gαq5i66V chimera, and iv) a β-galactosidase control. Twenty-four hours after transfection, cells were stimulated with increasing concentrations of various ligands for 15 minutes. Selected wells were then washed three times with serum-free media and plates were further incubated for 4 hours.
# [5] = tested on: HEK293 cells transfected with vector control (pcDNA1.1); assay: Luciferase reporter assay in cells transfected with vector control; type: cell-based, human; details: cells transfected with pcDNA1.1 vector control
# Method: as §1
# [6] = biological target: T3, human CMKLR1 (Homo sapiens, UniProt Q99788); assay: SRE-luciferase reporter gene assay in transfected HEK293 cells; details: for Activity of membrane-tethered ligand at human CMKLR1: tethered ligand cDNA cotransfected, luciferase 24 hours after transfection
# T3 sequence (Q99788 1-373): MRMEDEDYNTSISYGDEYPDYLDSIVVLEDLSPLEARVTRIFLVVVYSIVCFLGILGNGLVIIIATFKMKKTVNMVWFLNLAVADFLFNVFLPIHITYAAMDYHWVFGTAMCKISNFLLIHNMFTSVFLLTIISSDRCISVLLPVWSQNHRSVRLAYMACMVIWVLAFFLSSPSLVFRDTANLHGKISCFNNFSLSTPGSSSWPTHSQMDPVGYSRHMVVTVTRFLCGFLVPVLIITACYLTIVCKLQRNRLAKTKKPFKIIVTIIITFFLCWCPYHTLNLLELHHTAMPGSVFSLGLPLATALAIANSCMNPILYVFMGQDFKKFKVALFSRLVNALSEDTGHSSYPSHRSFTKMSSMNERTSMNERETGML
# Method: as §1, §2, §3
# [7] = biological target: T3, human CMKLR1; assay: Washout experiments (serial washes after 15 min ligand, luciferase readout); details: three washes after 15 min ligand
# Method: as §4, §5
molecule,measurement,setting,value
"CC[C@@H](O)/C=C/C=C\C[C@@H](O)/C=C/C=C/C=C\[C@@H](O)CCCC(=O)O [RvE1, reference compound]",Time point at which a significant decrease in pain scores was observed,[1],1 h
Cc1cccc(NC(=O)N[C@@H]2N=C(c3ccccc3)c3ccccc3N(CC(=O)c3ccccc3C)C2=O)c1 [YM022],IC50,"[2]; agonist l-CCK4-Gly-COOH 10 μM, 4 hours, read-out: IC50 for inhibition of l-CCK4-Gly-COOH induced CCK2R signaling",10.2 nM
same,IC50,"[2]; agonist s-CCK4-Gly-COOH 10 μM, 4 hours, read-out: IC50 for inhibition of s-CCK4-Gly-COOH induced CCK2R signaling",0.84 nM
same,IC50,"[2]; agonist tCCK4-Gly (tethered), antagonist 20 hours, read-out: IC50 for inhibition of tCCK4-Gly induced CCK2R signaling",0.54 nM
"CC(C)C[C@H](NC(=O)[C@H](Cc1ccccc1)NC(=O)[C@H](N)Cc1ccc(O)cc1)C(=O)N1CCC[C@H]1C(=O)N[C@H](CO)C(=O)N[C@@H](CCC(N)=O)C(=O)N[C@@H](Cc1ccccc1)C(=O)N[C@H](C)C(=O)N1Cc2ccccc2C[C@H]1C(=O)N[C@@H](CO)C(=O)O [s-Stable Chem, reference compound] (H-[dY]FLP[dS]QF[dA][Tic]S-OH)",EC50,"[3]; pEC50, Mouse CMKLR1, no wash, mean ± S.E.M.",12 nM
same,"Agonist activity after serial washes, mouse CMKLR1",[4],rapidly decreased
same,Agonist activity without CMKLR1 expression,[5],no agonist activity
same,EC50,"[6]; pEC50, Human CMKLR1, no wash, mean ± S.E.M.",61.7 nM
same,"Agonist activity after serial washes, human CMKLR1",[7],rapidly decreased
"tChem 149-157: membrane-tethered C-terminal chemerin peptide (amino acids 149-157), endogenous sequence ending phenylalanine-serine (MSTSMIRDVELAEEALPKKTGGPQGSRRCLFSLFIVAGATTLFCLLHFGVIYFPGQFAFS; left off: small tags and cut ends)",Activity of membrane-tethered ligand at mouse CMKLR1,[3],activated
same,Activity of membrane-tethered ligand at human CMKLR1,[6],activated
same,Activity of membrane-tethered ligand at human CMKLR1,[6]; listed as FS,comparable activity
"tChem 21-157: membrane-tethered full length chemerin (amino acids 21-157) (protein, left off: small tags and cut ends) MSTSMIRDVELAEEALPKKTGGPQGSRRCLFSLFIVAGATTLFCLLHFGVIELTEAQRRGLQVALEEFHKHPPVQWAFQETSVESAVDTPFPAGIFVRLEFKLQQTSCRKRDWKKPECKVRPNGRKRKCLACIKLGSEDKVLGRLVHCPIETQVLREAEEHQETQCLRVQRAGEDPHSFYFPGQFAFS",Activity of membrane-tethered ligand at mouse CMKLR1,[3],activated
same,Activity of membrane-tethered ligand at human CMKLR1,[6],activated
"tGalanin: negative control membrane-tethered ligand with the amino acid sequence of human galanin (protein, left off: small tags and cut ends) MSTSMIRDVELAEEALPKKTGGPQGSRRCLFSLFIVAGATTLFCLLHFGVIGWTLNSAGYLLGPHAVGNHRSFSDKNGLTS",Activity of membrane-tethered ligand at mouse CMKLR1,[3],lack activity
same,Activity of membrane-tethered ligand at human CMKLR1,[6],lack activity
"tChem 1-163: membrane-tethered ligand encoding pre-prochemerin (amino acids 1-163), TNFα transmembrane domain (protein, left off: small tags and cut ends) MSTSMIRDVELAEEALPKKTGGPQGSRRCLFSLFIVAGATTLFCLLHFGVIMRRLLIPLALWLGAVGVGVAELTEAQRRGLQVALEEFHKHPPVQWAFQETSVESAVDTPFPAGIFVRLEFKLQQTSCRKRDWKKPECKVRPNGRKRKCLACIKLGSEDKVLGRLVHCPIETQVLREAEEHQETQCLRVQRAGEDPHSFYFPGQFAFSKALPRS",Activity of membrane-tethered ligand at mouse CMKLR1,[3],lack activity
same,Activity of membrane-tethered ligand at human CMKLR1,[6],lack activity
